In US10363239B2, “Method for inhibiting growth of cancer cells” (Pain Therapeutics, Inc., priority 2013, dated 2019):

The molecules below were run against FLNA pentapeptide of SEQ ID NO: 1 (Bn-VAKGL) (Homo sapiens, UniProt P21333) (assay: FITC-NLX-based FLNA screening assay (inhibition of FITC-naloxone binding to Bn-VAKGL on streptavidin plates)). Conditions: read-out: Percent Binding Inhibition, FLNA-binding compound 0.01 μM; 10 nM FITC-NLX.

SMILES | inhibition at 0.01 µM [%]
O=S(=O)(c1ccc(F)cc1)N1CCC2(CC1)OCCN2S(=O)(=O)c1ccc(F)cc1 [Compound C0029] | 38.6
COc1ccccc1CC(=O)CC1c2c(cc3c(c2OC)OCO3)CC[N+]1(C)C (stereo not drawn) [Compound 5009] | 42.5
COc1ccc(S(=O)(=O)N2CCC3(CC2)NCCC(=O)N3)cc1 [Compound C0142M] | 35.1
COc1ccc(C(=O)CC2c3c(cc4c(c3OC)OCO4)CC[N+]2(C)C)c(F)c1 (stereo not drawn) [Compound B0027] | 40.2
COc1ccc(NC(=O)N2CCC3(CC2)OCCN3C(=O)Nc2ccc(OC)cc2)cc1 [Compound C0151M] | 48.3
CC(=O)c1ccc(S(=O)(=O)N2CCC3(CC2)OC(CN(C)C)CN3S(=O)(=O)c2ccc(C(C)=O)cc2)cc1 (stereo not drawn) [Compound C0065] | 37.1
COc1ccc(NC(=O)N2CCC3(CC2)OCCN3S(=O)(=O)c2ccc(OC)cc2)cc1 [Compound C0041] | 38.3

Same assay, conditions: read-out: Percent Binding Inhibition, FLNA-binding compound 0.1 μM; 10 nM FITC-NLX

SMILES | inhibition at 0.1 µM [%]
O=S(=O)(c1ccc(F)cc1)N1CCC2(CC1)OCCN2S(=O)(=O)c1ccc(F)cc1 [Compound C0029] | 43.2
COc1ccccc1CC(=O)CC1c2c(cc3c(c2OC)OCO3)CC[N+]1(C)C (stereo not drawn) [Compound 5009] | 47.3
COc1ccc(S(=O)(=O)N2CCC3(CC2)NCCC(=O)N3)cc1 [Compound C0142M] | 39.4
COc1ccc(C(=O)CC2c3c(cc4c(c3OC)OCO4)CC[N+]2(C)C)c(F)c1 (stereo not drawn) [Compound B0027] | 46.7
COc1ccc(NC(=O)N2CCC3(CC2)OCCN3C(=O)Nc2ccc(OC)cc2)cc1 [Compound C0151M] | 51.7
CC(=O)c1ccc(S(=O)(=O)N2CCC3(CC2)OC(CN(C)C)CN3S(=O)(=O)c2ccc(C(C)=O)cc2)cc1 (stereo not drawn) [Compound C0065] | 44
COc1ccc(NC(=O)N2CCC3(CC2)OCCN3S(=O)(=O)c2ccc(OC)cc2)cc1 [Compound C0041] | 47

Same assay, conditions: read-out: Percent Binding Inhibition, FLNA-binding compound 1 μM; 10 nM FITC-NLX

SMILES | inhibition at 1 µM [%]
O=S(=O)(c1ccc(F)cc1)N1CCC2(CC1)OCCN2S(=O)(=O)c1ccc(F)cc1 [Compound C0029] | 50.5
COc1ccccc1CC(=O)CC1c2c(cc3c(c2OC)OCO3)CC[N+]1(C)C (stereo not drawn) [Compound 5009] | 54.3
COc1ccc(S(=O)(=O)N2CCC3(CC2)NCCC(=O)N3)cc1 [Compound C0142M] | 56
COc1ccc(C(=O)CC2c3c(cc4c(c3OC)OCO4)CC[N+]2(C)C)c(F)c1 (stereo not drawn) [Compound B0027] | 49.8
COc1ccc(NC(=O)N2CCC3(CC2)OCCN3C(=O)Nc2ccc(OC)cc2)cc1 [Compound C0151M] | 58.7
CC(=O)c1ccc(S(=O)(=O)N2CCC3(CC2)OC(CN(C)C)CN3S(=O)(=O)c2ccc(C(C)=O)cc2)cc1 (stereo not drawn) [Compound C0065] | 47
COc1ccc(NC(=O)N2CCC3(CC2)OCCN3S(=O)(=O)c2ccc(OC)cc2)cc1 [Compound C0041] | 51.2

What follows are molecules tested on mu opiate receptor (MOR) (assay: MOR agonist activity using [35S]GTPγS binding assay in striatal membranes). Conditions: Series B; 0.1 μM compound, relative to DAMGO.
Format: biochemical
Summary of the method: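 Striatal membranes (200 μg) were preincubated 5 min at 30 °C in HEPES pH 7.5 with 100 mM NaCl, 1 mM MgCl2 and 0.5 nM [35S]GTPγS, then 5 min more with 0.1–10 μM compound. Gαo was immunoprecipitated and bound radioactivity counted by scintillation.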

SMILES | % DAMGO (0.1 μM) [%]
COc1ccccc1CC(=O)CC1c2c(cc3c(c2OC)OCO3)CC[N+]1(C)C (stereo not drawn) [Compound 5009] | 66.9
COc1ccc(C(=O)CC2c3c(cc4c(c3OC)OCO4)CC[N+]2(C)C)c(F)c1 (stereo not drawn) [Compound B0027] | 82.3

Same assay, conditions: Series B; 0.1 μM compound; [35S]GTPγS binding to Gαo, striatal membranes

SMILES | MOR agonist activity, percent [35S]GTPγS binding at the stated compound concentration [%]
COc1ccccc1CC(=O)CC1c2c(cc3c(c2OC)OCO3)CC[N+]1(C)C (stereo not drawn) [Compound 5009] | 128.5
COc1ccc(C(=O)CC2c3c(cc4c(c3OC)OCO4)CC[N+]2(C)C)c(F)c1 (stereo not drawn) [Compound B0027] | 140.9

Same assay, conditions: Series B; 1 μM compound + 1 μM β-FNA

SMILES | MOR agonist activity, percent [35S]GTPγS binding at the stated compound concentration [%]
COc1ccccc1CC(=O)CC1c2c(cc3c(c2OC)OCO3)CC[N+]1(C)C (stereo not drawn) [Compound 5009] | 87.5
COc1ccc(C(=O)CC2c3c(cc4c(c3OC)OCO4)CC[N+]2(C)C)c(F)c1 (stereo not drawn) [Compound B0027] | 21.6

Same assay, conditions: Series B; 1 μM compound + β-FNA, relative to DAMGO + BFNA

SMILES | % DAMGO + BFNA [%]
COc1ccccc1CC(=O)CC1c2c(cc3c(c2OC)OCO3)CC[N+]1(C)C (stereo not drawn) [Compound 5009] | 181.5
COc1ccc(C(=O)CC2c3c(cc4c(c3OC)OCO4)CC[N+]2(C)C)c(F)c1 (stereo not drawn) [Compound B0027] | 41.5

Same assay, conditions: Series B; 1 μM compound, relative to DAMGO

SMILES | % DAMGO (1 μM) [%]
COc1ccccc1CC(=O)CC1c2c(cc3c(c2OC)OCO3)CC[N+]1(C)C (stereo not drawn) [Compound 5009] | 83.2
COc1ccc(C(=O)CC2c3c(cc4c(c3OC)OCO4)CC[N+]2(C)C)c(F)c1 (stereo not drawn) [Compound B0027] | 100.0

Same assay, conditions: Series B; 1 μM compound; [35S]GTPγS binding to Gαo, striatal membranes

SMILES | MOR agonist activity, percent [35S]GTPγS binding at the stated compound concentration [%]
COc1ccccc1CC(=O)CC1c2c(cc3c(c2OC)OCO3)CC[N+]1(C)C (stereo not drawn) [Compound 5009] | 270.4
COc1ccc(C(=O)CC2c3c(cc4c(c3OC)OCO4)CC[N+]2(C)C)c(F)c1 (stereo not drawn) [Compound B0027] | 266.9

Same assay, conditions: Series C-1; 0.1 μM compound, relative to DAMGO

SMILES | % DAMGO (0.1 μM) [%]
O=S(=O)(c1ccc(F)cc1)N1CCC2(CC1)OCCN2S(=O)(=O)c1ccc(F)cc1 [Compound C0029] | 91.2
COc1ccc(NC(=O)N2CCC3(CC2)OCCN3C(=O)Nc2ccc(OC)cc2)cc1 [Compound C0151M] | 201.6
CC(=O)c1ccc(S(=O)(=O)N2CCC3(CC2)OC(CN(C)C)CN3S(=O)(=O)c2ccc(C(C)=O)cc2)cc1 (stereo not drawn) [Compound C0065] | 127.0
COc1ccc(NC(=O)N2CCC3(CC2)OCCN3S(=O)(=O)c2ccc(OC)cc2)cc1 [Compound C0041] | 110.1

Same assay, conditions: Series C-1; 0.1 μM compound; [35S]GTPγS binding to Gαo, striatal membranes

SMILES | Concentration of FLNA-Binding Compound as Agonist 0.1 μM [%]
O=S(=O)(c1ccc(F)cc1)N1CCC2(CC1)OCCN2S(=O)(=O)c1ccc(F)cc1 [Compound C0029] | 175.4
COc1ccc(NC(=O)N2CCC3(CC2)OCCN3C(=O)Nc2ccc(OC)cc2)cc1 [Compound C0151M] | 346.8
CC(=O)c1ccc(S(=O)(=O)N2CCC3(CC2)OC(CN(C)C)CN3S(=O)(=O)c2ccc(C(C)=O)cc2)cc1 (stereo not drawn) [Compound C0065] | 198.3
COc1ccc(NC(=O)N2CCC3(CC2)OCCN3S(=O)(=O)c2ccc(OC)cc2)cc1 [Compound C0041] | 186.1

Same assay, conditions: Series C-1; 1 μM compound + 1 μM β-FNA

SMILES | Concentration of FLNA-Binding Compound as Agonist 1 μM + BFNA [%]
O=S(=O)(c1ccc(F)cc1)N1CCC2(CC1)OCCN2S(=O)(=O)c1ccc(F)cc1 [Compound C0029] | 16.6
COc1ccc(NC(=O)N2CCC3(CC2)OCCN3C(=O)Nc2ccc(OC)cc2)cc1 [Compound C0151M] | 212.8
CC(=O)c1ccc(S(=O)(=O)N2CCC3(CC2)OC(CN(C)C)CN3S(=O)(=O)c2ccc(C(C)=O)cc2)cc1 (stereo not drawn) [Compound C0065] | 47.7
COc1ccc(NC(=O)N2CCC3(CC2)OCCN3S(=O)(=O)c2ccc(OC)cc2)cc1 [Compound C0041] | 95.5

Same assay, conditions: Series C-1; 1 μM compound + β-FNA, relative to DAMGO + BFNA

SMILES | % DAMGO + BFNA [%]
O=S(=O)(c1ccc(F)cc1)N1CCC2(CC1)OCCN2S(=O)(=O)c1ccc(F)cc1 [Compound C0029] | 37.8
COc1ccc(NC(=O)N2CCC3(CC2)OCCN3C(=O)Nc2ccc(OC)cc2)cc1 [Compound C0151M] | 233.1
CC(=O)c1ccc(S(=O)(=O)N2CCC3(CC2)OC(CN(C)C)CN3S(=O)(=O)c2ccc(C(C)=O)cc2)cc1 (stereo not drawn) [Compound C0065] | 119.5
COc1ccc(NC(=O)N2CCC3(CC2)OCCN3S(=O)(=O)c2ccc(OC)cc2)cc1 [Compound C0041] | 575.3

Same assay, conditions: Series C-1; 1 μM compound, relative to DAMGO

SMILES | % DAMGO (1 μM) [%]
O=S(=O)(c1ccc(F)cc1)N1CCC2(CC1)OCCN2S(=O)(=O)c1ccc(F)cc1 [Compound C0029] | 113.1
COc1ccc(NC(=O)N2CCC3(CC2)OCCN3C(=O)Nc2ccc(OC)cc2)cc1 [Compound C0151M] | 122.0
CC(=O)c1ccc(S(=O)(=O)N2CCC3(CC2)OC(CN(C)C)CN3S(=O)(=O)c2ccc(C(C)=O)cc2)cc1 (stereo not drawn) [Compound C0065] | 121.3
COc1ccc(NC(=O)N2CCC3(CC2)OCCN3S(=O)(=O)c2ccc(OC)cc2)cc1 [Compound C0041] | 111.7

Same assay, conditions: Series C-1; 1 μM compound; [35S]GTPγS binding to Gαo, striatal membranes

SMILES | Concentration of FLNA-Binding Compound as Agonist 1 μM [%]
O=S(=O)(c1ccc(F)cc1)N1CCC2(CC1)OCCN2S(=O)(=O)c1ccc(F)cc1 [Compound C0029] | 308.8
COc1ccc(NC(=O)N2CCC3(CC2)OCCN3C(=O)Nc2ccc(OC)cc2)cc1 [Compound C0151M] | 397.6
CC(=O)c1ccc(S(=O)(=O)N2CCC3(CC2)OC(CN(C)C)CN3S(=O)(=O)c2ccc(C(C)=O)cc2)cc1 (stereo not drawn) [Compound C0065] | 279.5
COc1ccc(NC(=O)N2CCC3(CC2)OCCN3S(=O)(=O)c2ccc(OC)cc2)cc1 [Compound C0041] | 244.4

Same assay, conditions: Series C-2; 0.1 μM compound, relative to DAMGO

SMILES | % DAMGO (0.1 μM) [%]
COc1ccc(S(=O)(=O)N2CCC3(CC2)NCCC(=O)N3)cc1 [Compound C0142M] | 97.8

Same assay, conditions: Series C-2; 0.1 μM compound; [35S]GTPγS binding to Gαo, striatal membranes

SMILES | MOR agonist activity, percent [35S]GTPγS binding at the stated compound concentration [%]
COc1ccc(S(=O)(=O)N2CCC3(CC2)NCCC(=O)N3)cc1 [Compound C0142M] | 143.7

Same assay, conditions: Series C-2; 1 μM compound + 1 μM β-FNA

SMILES | MOR agonist activity, percent [35S]GTPγS binding at the stated compound concentration [%]
COc1ccc(S(=O)(=O)N2CCC3(CC2)NCCC(=O)N3)cc1 [Compound C0142M] | 98.7

Same assay, conditions: Series C-2; 1 μM compound + β-FNA, relative to DAMGO + BFNA

SMILES | % DAMGO + BFNA [%]
COc1ccc(S(=O)(=O)N2CCC3(CC2)NCCC(=O)N3)cc1 [Compound C0142M] | 251.1

Same assay, conditions: Series C-2; 1 μM compound, relative to DAMGO

SMILES | % DAMGO (1 μM) [%]
COc1ccc(S(=O)(=O)N2CCC3(CC2)NCCC(=O)N3)cc1 [Compound C0142M] | 95.2

Same assay, conditions: Series C-2; 1 μM compound; [35S]GTPγS binding to Gαo, striatal membranes

SMILES | MOR agonist activity, percent [35S]GTPγS binding at the stated compound concentration [%]
COc1ccc(S(=O)(=O)N2CCC3(CC2)NCCC(=O)N3)cc1 [Compound C0142M] | 192.5
